From patent US20140234420A1, “Method of Treating Skin Disorders using Nanoscale Delivery Devices and Transdermal Enhancing Compositions” (priority 2008, published 2014)
Converted amounts (≈) assume the structure as drawn. Structures can show the parent of a compound that is named as a salt. Where two headings read alike, the source gives them in different places.

Key:
[1] = cited from earlier work
[2] = cited from earlier work; remark: listed apart in the source
[3] = Size, polydispersity index and zeta potential determination (Malvern Zetasizer); type: physicochemical
Protocol: Nanoparticles (2 mg) and micelles (2 mg) were dispersed in 2 ml of purified water and bath sonicated for 1 min. They were then centrifuged at 10000 rpm for 5 min and diluted 50 times with distilled water. About 50 μl of the nanoemulsion was taken and dilated to 1 mL using distilled water. A liposome dispersion was diluted 100 times using purified water and probe sonicated for 1 min using 20% amplitude. The sizes, polydispersity indexes, and zeta potentials, were measured with a Malvern Zetasizer.
Nanoparticles (2 mg) were dispersed in 1 ml of purified water and probe sonicated for 1 min using 20% amplitude. Subsequently, the sonicated particles were diluted 10 times with distilled water and properties were measured using a Malvern Zetasizer. […]
Size, polydispersity index and zeta potential determination: nanoparticles (50 μl), nanoemulsions (squalene) (50 μl) and nanomicelles (2 mg) were dispersed in 2 ml of purified water separately, vortex for 1 min. Further, the size, polydispersity index and zeta potential were measured with a Malvern Zetasizer.

[4] = Encapsulation (entrapment) efficiency; type: physicochemical; settings: for % EE: drug encapsulated in zein/lecithin/squalene nanoemulsions
Protocol: Detection wavelength: 340 nm; Injection volume: 50 μl: Run time: 10 min. […] The resulting solution was centrifuged at 5000 rpm for 5 min. […] The resulting solution was centrifuged 5000 rpm for 5 min. […] In vitro release of MTX from the formulations in phosphate buffer (pH 7.4) was studied using UV-spectrophotometry. […] Benzoyl peroxide content was measured using HPLC.

[5] = test system: scleroderma patients; settings: one course of systemic treatment (MTX 15-25 mg/weekly for 6 months); cited from earlier work
[6] = hamster ear in vitro, 24 hrs treatment
From the text: The excised hamster ear was placed on the Franz diffusion cell by exposing ventral surface towards the donor compartment.

[7] = sebum flux from citrate-phosphate buffer (pH 5.5), 37° C.
Protocol: The supporting membrane (polycarbonate membrane, pore size of 0.4 μm) of each insert was loaded with 2.5±0.2 mg of the artificial sebum. […] The study was carried out in an incubator at 125 rpm under 37° C. The complete receptor medium was replaced with fresh medium at predetermined intervals, i.e., 10, 20, 30, 40, 50, 60, 75, 90, 120 and 180 minutes after treatment. […] The cumulative quantity of drug in the receiver compartment was plotted as a function of time. The flux value for a given experiment was obtained from the linear slope (steady-state portion) of the cumulative amount of drug permeated versus time curve.

[8] = Dispersibility in aqueous solution; type: physicochemical
[9] = Stability (half-life) of retinol, free and encapsulated; type: physicochemical
From the text: Encapsulation of retinol into the zein nanoparticles and micelles improved the stability of retinol by 2 to 5 fold (see Table 5).

[10] = molecules encapsulated in nanoemulsions (Table 23)
[11] = drug encapsulated in zein/lecithin/squalene nanoemulsions
[12] = compound encapsulated in zein micelles
[13] = compound encapsulated in zein core-shell particles

For `O=C(OOC(=O)c1ccccc1)c1ccccc1` [Benzoyl peroxide, Benzoyl Peroxide], the “Solubility in ether and chloroform” value [1] is given as “Soluble”, the Solubility in water [1] is given as “insoluble” and the “Log P” value [2, 10] is given as 3.48. For the same compound, the Particle Size [3, 11] was 208.5 ± 6.7 nm and the “% EE” value [4] was 83.66 ± 3.81%.
With `COc1cc(/C=C/C(=O)CC(=O)/C=C/c2ccc(O)c(OC)c2)ccc1O` [Curcumin] the PI [3, 12] was 0.25 ± 0.03, the “Particle Size” value [3, 12] was 124 ± 4 nm and the “Encapsulation Efficiency” value [4, 12] was 95 ± 4%.
For `COc1cccc2c1C(=O)c1c(O)c3c(c(O)c1C2=O)C[C@@](O)(C(=O)CO)C[C@@H]3O[C@H]1C[C@H](N)[C@H](O)[C@H](C)O1` [Doxorubicin-HCl], the “Log P” value ([2]; compounds encapsulated in zein core-shell particles (Table 1)) is given as −0.5, the “Particle Size” value [3, 13] is given as 171 ± 45 nm and the “Encapsulation Efficiency” value [4, 13] is given as 61 ± 16%.
With `COc1cccc2c1C(=O)c1c(O)c3c(c(O)c1C2=O)C[C@@](O)(C(=O)CO)C[C@@H]3O[C@H]1C[C@H](N)[C@H](O)[C@H](C)O1` [Doxorubicin] the PI [3, 12] was 0.18 ± 0.06, the “Particle Size” value [3, 12] was 153 ± 3 nm and the “Encapsulation Efficiency” value [4, 12] was 92 ± 6%.
In the case of `CN(Cc1cnc2nc(N)nc(N)c2n1)c1ccc(C(=O)N[C@@H](CCC(=O)O)C(=O)O)cc1` [Methotrexate], the Solubility in water ([1]; at 19° C.) is listed as less than 0.1 g/100 ml, the “Solubility in DMSO” value [1] is listed as 100 mM (≈ 45.4 mg/mL) and the “Log P” value [2] is listed as −1.8. The “Log P” value [2, 10] was −1.8, the “Patients who reached a remission status” value [5] was 51% and the Particle Size [3, 11] was 214.3 ± 8.4 nm. For the same compound, the “% EE” value [4] was 87.60 ± 2.1%.
For `CCN(CC)c1ccc2nc3c4ccccc4c(=O)cc-3oc2c1` [Nile Red], the “Log P” value ([2]; compounds encapsulated in zein micelles (Table 2)) is given as 5, the PI [3, 12] is given as 0.21 ± 0.08 and the “Particle Size” value [3, 12] is given as 165 ± 7 nm. The “Encapsulation Efficiency” value [4, 12] was 77 ± 11%.
In the case of `CC1=C(/C=C/C(C)=C/C=C/C(C)=C/C(=O)O)C(C)(C)CCC1` [Retinoic acid Solution], the “% Applied dose in Cartilage” value [6] is reported as 2.409%, the “% Applied dose in Dermis” value [6] is reported as 1.444% and the “% Applied dose in Dorsal” value [6] is reported as 4.713%. For the same compound, the “% Applied dose in Sebaceous gland” value [6] was 0.06619% and the “% Applied dose in SC” value ([6]; 100 μg retinoic acid) was 1.692%.
In the case of `CC1=C(/C=C/C(C)=C/C=C/C(C)=C/C(=O)O)C(C)(C)CCC1` [Retinoic acid], the Solubility in fat [1] is listed as “soluble”, the Solubility in water [1] is listed as “nearly insoluble” and the “Log P” value [2, 10] is listed as 6.83. For the same compound, the Particle Size [3, 11] was 152 ± 3.6 nm and the Flux [7] was 0.154 ± 0.003 μg/cm^2/min.
For `CC1=C(/C=C/C(C)=C/C=C/C(C)=C/CO)C(C)(C)CCC1` [Retinol], the “Dispersibility in aqueous solution / water” value [8] was “not dispersible in water”, the half-life ([9]; liquid state, Dark) was 20.8 ± 2.1 h and the half-life ([9]; liquid state, Light) was 16.1 ± 1.9 h. The half-life ([9]; solid state, Dark) was 63 ± 2.7 h, the half-life ([9]; solid state, Light) was 52.8 ± 3.5 h and the Solubility in fat [1] was “soluble”. The Solubility in water [1] was “nearly insoluble”, the PI [3, 12] was 0.27 ± 0.06 and the “Particle Size” value [3, 12] was 191 ± 6 nm. For the same compound, the “Encapsulation Efficiency” value [4, 12] was 83 ± 3.1%.
